Reference: patent US20260008783A1, “MODULATORS OF FSHR AND USES THEREOF” (Celmatix Inc., priority 2022, published 2026)

Target: T1, Follicle Stimulating Hormone Receptor (FSHR) (Homo sapiens, UniProt P23945)
T1 construct: HA (N); expressed in transfected cells; host or cells: CHO-K1, transient transfection, pHM6 vector (CMV promoter)
T1 sequence (P23945 18-695): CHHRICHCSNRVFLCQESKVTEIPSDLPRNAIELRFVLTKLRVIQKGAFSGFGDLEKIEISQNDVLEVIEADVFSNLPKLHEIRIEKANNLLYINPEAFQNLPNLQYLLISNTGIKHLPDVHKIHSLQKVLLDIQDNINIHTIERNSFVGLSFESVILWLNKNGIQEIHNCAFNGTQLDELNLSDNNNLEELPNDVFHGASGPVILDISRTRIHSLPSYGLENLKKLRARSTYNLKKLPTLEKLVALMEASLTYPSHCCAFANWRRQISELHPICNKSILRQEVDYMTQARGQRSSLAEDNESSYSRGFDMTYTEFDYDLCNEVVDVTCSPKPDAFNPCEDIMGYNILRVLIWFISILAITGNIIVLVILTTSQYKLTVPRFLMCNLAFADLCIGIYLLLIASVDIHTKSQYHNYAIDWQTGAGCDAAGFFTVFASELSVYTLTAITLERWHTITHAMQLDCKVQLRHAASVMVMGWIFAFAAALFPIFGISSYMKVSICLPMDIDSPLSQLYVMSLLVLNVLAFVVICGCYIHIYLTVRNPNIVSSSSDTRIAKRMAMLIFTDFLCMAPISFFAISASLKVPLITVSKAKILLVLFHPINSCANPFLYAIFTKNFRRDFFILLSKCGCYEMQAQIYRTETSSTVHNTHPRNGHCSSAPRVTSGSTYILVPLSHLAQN
Test: HTRF cAMP agonist assay, FSHR, transiently transfected CHO-K1 cells
Format: cell-based
Settings: CHO-K1 cells transiently expressing human FSHR, read-out: IC50 FSHR LANCE CAMP
From the text: Example 17. HTRF cAMP Agonist Assay Protocol (for FSHR, TSHR, LHCGR)
Mammalian expression vectors designed to express either Follicle Stimulating Hormone Receptor (FSHR), Thyroid Stimulating Hormone Receptor (TSHR), or Luteinizing Hormone/Choriogonadotropin Receptor (LHCGR), were generated with an HA-tag on the N-terminus. All constructs were expressed under a human cytomegalovirus (CMV) immediate early enhancer and promoter using the pHM6 expression vector. The protein coding region was confirmed by sequence analysis to be in-frame and of the expected sequence, matching the following accession numbers: FSHR NM_000145, TSHR NM_000369, and LHCGR NM_000233.
HTRF cAMP assays were performed using Chinese Hamster Ovary (CHO-K1) cell lines transiently expressing human FSH, TSH, and LHCG receptors. 48 hours before the assay, cells were washed with PBS and then dissociated from tissue culture flasks with 0.25% trypsin. Dissociated cells were quenched in full media (F-12K Medium Corning REF #10-025-CV, 10% Avantor Seradigm FB Essence Cat #10803-034, 1% Penicillin/Streptomycin Cytiva HyClone Cat #SV30010) and then collected by centrifugation at 290×g for 5 min. Cells were resuspended in full media and dispensed into 150 mm cell culture dishes (Nest Scientific Cat #715001), at 2.3×10^6 cells/flask. 7 hours later, cells were transfected using Lipofectamine transfection reagent (Invitrogen Cat #18324020). Briefly, 60 μL of lipofectamine was dispensed into 2 mL of Opti-MEM (Gibco Cat #31985070) and incubated for 5 minutes at room temperature. Then, the mixture was added onto […] of DNA and incubated for another 20 minutes at room temperature. Cells were washed with warm (37° C.) PBS. 17.5 mL of Opti-MEM was dispensed onto the cells, followed by addition of the Opti-MEM/lipofectamine/DNA mixture. Cells were incubated overnight in a 37° C., 5% CO2 cell incubator. 17-19 hours later, Opti-MEM was aspirated off the cells and replaced with full media. Cells were incubated for another 24 hours in a 37° C., 5% CO2 cell incubator.
On the day of the assay, cells were washed with PBS and then dissociated from tissue culture flasks with 0.25% trypsin. Dissociated cells were quenched in full media and then collected by centrifugation at 290×g for 5 min. Cells were resuspended in PBS^+/+ (Corning REF #20-030-CV) to a concentration of 2×10^5 cells/mL. 10 μL/well of cells (2,000 cells/well) were dispensed into 384-well Corning plates (REF #3825), in triplicate. Cells were incubated at room temperature for 2 hours.
Example FSHR Modulator compounds were diluted in assay buffer (PBS^+/+, 0.05% BSA Sigma-Aldrich A3059, 500 μM IBMX Sigma-Aldrich 15879) to 3.5× the final assay concentration. 4 μL of test agonist was added to the cells and incubated for 1 hour at room temperature. 10 μL of cAMP detection reagents (LANCE Ultra cAMP Detection Kit PerkinElmer TRF0264) were dispensed onto the cells and plates were incubated for 2 hours at room temperature (cAMP detection reagents were made according to the PerkinElmer kit protocol). Plates were read on an Envision plate reader following PerkinElmer guidelines.
Raw data for all assays was transmitted directly from plate readers into a database for processing. All assay plates contained both positive and negative control wells to allow for data normalization and scaling. In agonist assays, negative control wells contained assay buffer and positive control wells contained […] positive control (10 nM Follicle Stimulating Hormone Sigma-Aldrich F4021, 50 nM Thyroid Stimulating Hormone Sigma-Aldrich 869006, 50 nM Luteinizing Hormone MyBioSource MBS5308806, for their respective receptors). All control wells contained DMSO at a final assay concentration that matched the test compound wells. […]
Percent control data were analyzed by non-linear regression with a sigmoidal dose response algorithm in the database to yield potency and efficacy data.

Compound | IC50
COc1cc2c(cc1-c1cncc(C(N)=O)c1)-c1c(c(C(=O)N3C4CCC3CN(C)C4)nn1-c1cc(Cl)cc(Cl)c1)CC2 [Compound 8-15] | 33.2 nM
CC1(C)COCCN1C(=O)c1nn(-c2cc(Cl)cc(Cl)c2)c2c1CCc1ccc(-c3cncc(C(N)=O)c3)cc1-2 [Compound 9-02] | 3.81 nM
COc1cc2c(cc1-c1cncc(C(N)=O)c1)-c1c(c(C(=O)N3CC4CCC3CN4C)nn1-c1cc(Cl)cc(Cl)c1)CC2 (stereo not shown) [Compound 8-17] | 115 nM
COc1cc2c(cc1-c1cncc(C(N)=O)c1)-c1c(c(C(=O)N3CCN(C)CC3C)nn1-c1cc(Cl)cc(Cl)c1)CC2 (stereo not shown) [Compound 8-05, 5-[1-(3,5-dichlorophenyl)-3-(2,4-dimethylpiperazine-1-carbonyl)-7-methoxy-4,5-dihydrobenzo[g]indazol-8-yl]pyridine-3-carboxamide] | 60.3 nM
COc1cc2c(cc1-c1cncc(C(N)=O)c1)-c1c(c(C(=O)N3CCC4C3CCN4C(=O)OC(C)(C)C)nn1-c1cc(Cl)cc(Cl)c1)CC2 (stereo not shown) [Compound 8-31A] | 145 nM
COc1cc2c(cc1-c1cncc(C(N)=O)c1)-c1c(c(C(=O)N3C4CC3CN(C)C4)nn1-c1cc(Cl)cc(Cl)c1)CC2 [Compound 8-16] | 70.4 nM
COc1cc2c(cc1-c1cncc(C(N)=O)c1)-c1c(c(C(=O)N3CCNCC3(C)C)nn1-c1cc(Cl)cc(Cl)c1)CC2 [Compound 8-02] | 30.5 nM
COc1cc2oc3c(C(=O)N4CCOCC4(C)C)nn(-c4ccsc4)c3c2cc1-c1ccn(C)n1 [Compound 4-07, (3,3-dimethylmorpholin-4-yl)-[6-methoxy-7-(1-methylpyrazol-3-yl)-1-(3-thienyl)benzofuro[3,2-c]pyrazol-3-yl]methanone] | 2810 nM
COc1cc2c(cc1-c1cncc(C(N)=O)c1)-c1c(c(C(=O)N3CCOC[C@@H]3C)nn1-c1cc(Cl)cc(Cl)c1)CC2 [Compound 8-43] | 2.59 nM
COc1cc2c(cc1-c1cncc(C(N)=O)c1)-c1c(c(C(=O)N3CCN(C(=O)OC(C)(C)C)C[C@@H]3C(C)C)nn1-c1cc(Cl)cc(Cl)c1)CC2 (stereo in doubt) [Compound 8-25A] | 754 nM
COc1cc2c(cc1-c1cncc(C(N)=O)c1)-c1c(c(C(=O)N(C)C3CCN(C)C3)nn1-c1cc(Cl)cc(Cl)c1)CC2 (stereo not shown) [Compound 8-28] | 2180 nM
CCCN1CCN(C(=O)c2nn(-c3cc(Cl)cc(Cl)c3)c3c2CCc2cc(OC)c(-c4cncc(C(N)=O)c4)cc2-3)C(C)(C)C1 [Compound 8-63] | 120 nM
CC1(C)C(=O)NCCN1C(=O)c1nn(-c2ccccn2)c2c1CCc1ccc(-c3cccnc3)cc1-2 [Compound 13-01, 3,3-dimethyl-4-[1-(2-pyridyl)-8-(3-pyridyl)-4,5-dihydrobenzo[g]indazole-3-carbonyl]piperazin-2-one] | 6740 nM
COc1cc2c(cc1-c1cncc(C#N)c1)-c1c(c(C(=O)N3CCOCC3(C)C)nn1-c1cc(Cl)cc(Cl)c1)CC2 [Compound 6-01B, 5-[1-(3,5-dichlorophenyl)-3-(3,3-dimethylmorpholine-4-carbonyl)-7-methoxy-4,5-dihydrobenzo[g]indazol-8-yl]pyridine-3-carbonitrile] | 33.3 nM
CC1(C)COCCN1C(=O)c1nn(-c2cc(Cl)cc(Cl)c2)c2c1CCc1cc(O)c(-c3cncc(C(N)=O)c3)cc1-2 [Compound 9-04, 5-[1-(3,5-dichlorophenyl)-3-(3,3-dimethylmorpholine-4-carbonyl)-7-hydroxy-4,5-dihydrobenzo[g]indazol-8-yl]pyridine-3-carboxamide] | 6.99 nM
COc1cc2c(cc1-c1cncc(C(N)=O)c1)-c1c(c(C(=O)N3CCNC(=O)C3(C)C)nn1-c1cc(Cl)cc(Cl)c1)CC2 [Compound 8-26] | 16.3 nM
COc1cc2c(cc1-c1ccn(C)n1)-c1c(c(C(=O)N(C)C(C)(C)C)nn1-c1ccsc1)OC2 [Compound 2-08] | 475 nM
COc1cc2c(cc1-c1cncc(C(N)=O)c1)-c1c(c(C(=O)N3[C@H](C)CNC[C@@H]3C)nn1-c1cc(Cl)cc(Cl)c1)CC2 [Compound 8-21] | 5.38 nM
CCn1nc(C(=O)N2CCOCC2(C)C)c2c1-c1cc(-c3cncc(C(N)=O)c3)c(OC)cc1CC2 [Compound 9-11] | 830 nM
COc1cc2c(cc1-c1cncc(C(N)=O)c1)-c1c(c(C(=O)N(C)C(C)(C)CO)nn1-c1cc(Cl)cc(Cl)c1)CC2 [Compound 8-10] | 991 nM
COc1cc2c(cc1-c1cncc(C(N)=O)c1)-c1c(c(C(=O)N(C)C(C)(C)C)nn1-c1cc(Cl)cc(Cl)c1)[S+]([O-])C2 (stereo not shown) [Compound 3-07, N-tert-butyl-8-(5-carbamoyl-3-pyridyl)-1-(3,5-dichlorophenyl)-7-methoxy-N-methyl-4-oxo-5H-isothiochromeno[4,3-c]pyrazole-3-carboxamide] | 4560 nM
COc1cc2c(cc1-c1cncc(C(N)=O)c1)-c1c(c(C(=O)N3CCOCC3(C)C)nn1-c1ccncc1)CC2 [Compound 10-03] | 190 nM
COc1cc2c(cc1-c1cncc(C(N)=O)c1)-c1c(c(C(=O)N3CCOCC3(C)C)nn1-c1cc(Cl)cc(Cl)c1)[S+]([O-])C2 (stereo not shown) [Compound 3-05] | 55.7 nM
COc1cc2oc3c(C(=O)N4CCOCC4(C)C)nn(-c4ccsc4)c3c2cc1-c1cncc(C#N)c1 [Compound 4-03, 5-[3-(3,3-dimethylmorpholine-4-carbonyl)-6-methoxy-1-(3-thienyl)benzofuro[3,2-c]pyrazol-7-yl]pyridine-3-carbonitrile] | 579 nM
CCN1CCN(C(=O)c2nn(-c3cc(Cl)cc(Cl)c3)c3c2CCc2cc(OC)c(-c4cncc(C(N)=O)c4)cc2-3)C(C)(C)C1 [Compound 8-60] | 38.9 nM
COc1cc2oc3c(C(=O)N4CCOCC4(C)C)nn(-c4ccsc4)c3c2cc1-c1cncc(C#N)c1 [Compound 4-03B] | 2360 nM
COc1cc2c(cc1-c1cncc(C(N)=O)c1)-c1c(c(C(=O)N3CCC4CN(C(=O)OC(C)(C)C)CCC43)nn1-c1cc(Cl)cc(Cl)c1)CC2 (stereo not shown) [Compound 8-23A, tert-butyl 1-[8-(5-carbamoyl-3-pyridyl)-1-(3,5-dichlorophenyl)-7-methoxy-4,5-dihydrobenzo[g]indazole-3-carbonyl]-3,3a,4,6,7,7a-hexahydro-2H-pyrrolo[3,2-c]pyridine-5-carboxylate] | 928 nM
COc1cc2c(cc1-c1cncc(C(N)=O)c1)-c1c(c(C(=O)NC(C)(C)CO)nn1-c1cc(Cl)cc(Cl)c1)CC2 [Compound 8-52A] | 39.3 nM
